The source of these data is US20060035901A1, “Methotrexate derivatives useful for treating cancer and arthritis” (Serenex, Inc., priority 2004, published 2006).

Experiment [1] deals with T1, propionyl-CoA carboxylase subunit beta (PCCB) (Sus scrofa, UniProt P79384).
T1 construct: a porcine liver proteome was run over an ATP-Sepharose™ column; from tissue; host or cells: porcine liver
T1 sequence (P79384 29-539): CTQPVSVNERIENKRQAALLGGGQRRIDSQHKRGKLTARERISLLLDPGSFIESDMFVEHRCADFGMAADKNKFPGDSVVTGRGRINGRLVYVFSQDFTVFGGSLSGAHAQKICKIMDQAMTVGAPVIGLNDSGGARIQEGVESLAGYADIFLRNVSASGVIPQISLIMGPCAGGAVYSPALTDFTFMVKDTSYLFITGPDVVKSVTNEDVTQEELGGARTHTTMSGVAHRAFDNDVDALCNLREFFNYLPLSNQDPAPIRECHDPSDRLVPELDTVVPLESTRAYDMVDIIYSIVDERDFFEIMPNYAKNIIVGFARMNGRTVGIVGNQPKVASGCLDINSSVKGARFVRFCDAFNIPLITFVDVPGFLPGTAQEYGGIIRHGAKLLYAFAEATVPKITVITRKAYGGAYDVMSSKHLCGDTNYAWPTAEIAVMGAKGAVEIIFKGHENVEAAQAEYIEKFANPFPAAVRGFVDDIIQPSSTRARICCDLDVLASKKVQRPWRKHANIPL
T1 sequence (P0DTA4 53-730 partner): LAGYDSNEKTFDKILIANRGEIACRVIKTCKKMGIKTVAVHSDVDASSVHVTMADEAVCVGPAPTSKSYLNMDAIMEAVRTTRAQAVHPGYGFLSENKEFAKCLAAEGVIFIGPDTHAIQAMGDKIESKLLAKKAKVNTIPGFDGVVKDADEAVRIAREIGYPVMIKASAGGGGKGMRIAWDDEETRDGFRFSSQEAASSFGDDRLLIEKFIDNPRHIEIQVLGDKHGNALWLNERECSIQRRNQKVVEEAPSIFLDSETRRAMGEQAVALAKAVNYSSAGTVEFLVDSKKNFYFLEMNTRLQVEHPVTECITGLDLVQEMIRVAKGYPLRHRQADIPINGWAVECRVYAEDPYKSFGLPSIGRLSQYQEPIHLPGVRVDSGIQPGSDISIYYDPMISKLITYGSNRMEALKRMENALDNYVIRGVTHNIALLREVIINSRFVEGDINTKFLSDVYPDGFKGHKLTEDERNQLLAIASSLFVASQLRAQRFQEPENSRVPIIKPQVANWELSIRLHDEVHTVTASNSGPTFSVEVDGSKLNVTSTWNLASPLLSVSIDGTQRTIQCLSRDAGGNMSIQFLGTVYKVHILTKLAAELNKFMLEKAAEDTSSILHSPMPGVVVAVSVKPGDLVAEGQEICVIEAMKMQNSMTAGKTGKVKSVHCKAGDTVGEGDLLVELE
The experiment can be described thus: Elution of PCCB from ATP-Sepharose column loaded with porcine liver proteome, IC50 estimate. In kind it is binding. As to conditions: estimated from percent of protein eluted from ATP-Sepharose column, read-out: Approximate IC50 for PCCB. The procedure:
Similar experiments were carried out to compare the IC50 values for PYC, PCCA, and PCCB. In these trials, a porcine liver proteome was run over an ATP-Sepharose™ column to bind all purine-binding proteins. The ATP-Sepharose™ column was washed several times, and then eluted with the compound of Formula III at concentrations of 1 μM, 5 μM, 10 μM, 50 μM, 100 μM, and 500 μM to identify proteins that bound to this compound.
Gels were stained with a fluorescent stain such as sypro ruby (a highly sensitive fluorescent protein stain that can readily detect less than 1 fmol of total protein, i.e., less than 0.04 ng for a 40 kDa protein). The gels were imaged using a standard flat bed gel imager and the amount of protein estimated by densiometry. The percent of protein eluted from the column at each concentration was determined and IC50 values were calculated from these estimates. Where necessary, the eluted proteins were cut out of the gel, and identified using mass spectral techniques.
The values obtained were then compared to those for DHFR.

The target in another experiment is T2, DHFR (Homo sapiens, UniProt P00374).
T2 sequence (P00374 1-187): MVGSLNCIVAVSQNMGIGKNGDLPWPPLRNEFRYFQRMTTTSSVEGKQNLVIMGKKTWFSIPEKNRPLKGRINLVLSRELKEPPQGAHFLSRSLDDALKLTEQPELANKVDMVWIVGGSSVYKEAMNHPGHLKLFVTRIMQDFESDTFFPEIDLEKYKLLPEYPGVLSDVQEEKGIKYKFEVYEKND
Nature of the experiment: DHFR enzymatic assay. Type of experiment: biochemical. As to conditions: determined by enzymatic assay.

Consider `C#CCN(Cc1cnc2nc(N)nc(N)c2n1)c1ccc(C(=O)NC(CCC(=O)O)C(=O)O)cc1C` (centres unmarked) [Formula III, 2-{4-[(2,4-diamino-pteridin-6-ylmethyl)-prop-2-ynyl-amino]-3-methyl-benzoylamino}-pentanedioic acid], for which the figures for the IC50 (in experiment [1]; at DHFR) were 3.5 µM and 0.01 µM, respectively.
For `C#CCN(Cc1cnc2nc(N)nc(N)c2n1)c1ccc(C(=O)NC(CCC(=O)O)C(=O)O)cc1OC(F)(F)F` (centres unmarked) [Formula IX], the IC50 in experiment [1] is 14 µM; against DHFR, 0.118 µM.
The like results for `C#CCN(Cc1cnc2nc(N)nc(N)c2n1)c1ccc(C(=O)NC(CCC(=O)O)C(=O)O)cc1OC` (centres unmarked) [Formula VIII] were, in that order, 3.5 µM and 0.015 µM.
On to `Cc1cc(C(=O)NC(CCC(=O)O)C(=O)O)ccc1N(Cc1ccoc1)Cc1cnc2nc(N)nc(N)c2n1` (centres unmarked) [Formula VII], for which the IC50 was 3 µM in experiment [1] and 0.015 µM against DHFR.

In general, IC50 refers to the concentration at which inhibition is half-maximal.
